What was measured:
[1] = tested on: PBMC; assay: cells; type: cell-based; conditions: Homo sapiens, 48 h, read-out: Cell TiterGlo Viability (EC50, μM)
Protocol: PBMC's are isolated from whole blood buffy coats by first combining fresh buffy coats with equal volumes of phosphate buffered saline. Thirty five mL of PBS/buffy coat solution are then gently overlaid onto 15 mL of Ficoll in 50 mL conical tubes. Following centrifugation for 30 minutes at 500×g (with slow acceleration and deceleration) the top layer of plasma is discarded and the layer of cells along the Ficoll interface is collected and pooled. […] Tubes are spun for 10 minutes at 500×G (with slow acceleration and deceleration), the media is removed by aspiration, and the wash step is repeated.
Cells are spun down for 5 minutes and the cell pellet is resuspended in complete media. Clumps of cells are broken up by running the cell solution through a 23 gauge syringe needle and a 40 μM cell strainer.
Equal volumes of Cell TITERGLO® cell viability testing reagent (Promega Cat #G7573) are added to the cells remaining in the plates, and following a fifteen minute incubation with gentle shaking at room temperature luminescence is measured with the Envision multi-label plate reader. Percent cell death is calculated by setting 100% activity (cell death) to zero luminescence units and minimum activity (max number of viable cells) as the average luminescence units of wells containing stimulants alone and no added compound. IC50's are calculated using a standard four parameter fit.

[2] = biological target: human RORg ligand binding domain fused to yeast GAL4 DNA binding domain (Homo sapiens (Human), UniProt P51449); assay: HEK293 RORg GAL4 receptor-reporter assay; type: cell-based; conditions: HEK293 cells, RORg-GAL4/pGL4.31 luciferase, 18 hours; mean ± standard deviation; read-out: hIC50
[3] = tested on: anti-CD3/anti-CD28/IL-23 stimulated IL-17 secretion in PBMC's; assay: PBMC IL-17 secretion ELISA; type: cell-based; conditions: Homo sapiens, anti-CD3/anti-CD28/IL-23 stimulation, 48 hours, mean ± standard deviation, read-out: hPBMC IL-17 ELISA (EC50)
Protocol: PBMC's are isolated from whole blood buffy coats by first combining fresh buffy coats with equal volumes of phosphate buffered saline. Thirty five mL of PBS/buffy coat solution are then gently overlaid onto 15 mL of Ficoll in 50 mL conical tubes. Following centrifugation for 30 minutes at 500×g (with slow acceleration and deceleration) the top layer of plasma is discarded and the layer of cells along the Ficoll interface is collected and pooled. Each 250 mL tube is filled to the top with room temperature RPMI-1640 media. Tubes are spun for 10 minutes at 500×G (with slow acceleration and deceleration), the media is removed by aspiration, and the wash step is repeated. Cells are resuspended in ice cold Recovery Cell Culture Freezing Medium from Life Technologies (Catalog number 12648-010) on ice. The cell concentration is adjusted to 66.7 million cells/mL. Cell are slow frozen at −1° C./minute in vials with 100 million cells and stored in liquid nitrogen.
PBMC are brought out of thaw by resuspending with 1 mL of complete media (RPMI-1640 containing 30 mM HEPES, 100 units/mL penicillin, 100 μg/mL streptomycin, 3.25 mM L-Glutamine, 0.2 μM beta-mercaptoethanol, and 10% FBS) followed by the drop wise addition of 2 mL, 4 mL, 8 mL, and 16 mL of complete media with gentle swirling. Cells are spun down for 5 minutes and the cell pellet is resuspended in complete media. Clumps of cells are broken up by running the cell solution through a 23 gauge syringe needle and a […] cell strainer. One hundred thousand cells per well are added to 384 well polystyrene tissue culture treated flat bottomed plates in a total of 30 μL. Stimulation cocktail containing anti-human CD3 antibody, anti-human CD28 antibody, IL-23 and compounds prepared in complete media are added to the cells simultaneously in a total volume of 30 μL. The final concentration of added stimulants is 160 ng/mL, 500 ng/mL, and 5 ng/mL for anti-CD3 antibody, anti-CD28 antibody, and IL-23 respectively and 0.3% for DMSO. Plates are sealed with AERASEAL® sealing film and incubated for 48 hours at 37° C., 95% humidity, and 5% CO2.
Following the incubation period, the plates are spun at 200×g for five minutes. Supernatants are diluted 1:1 with equal volume 1% BSA/PBS and tested for IL-17 with a human IL-17 ELISA kit from R&D system (catalog #D317E) according to the protocol provided with the kit with one exception—the colorimetric substrate OPD (o-phenylenediamine dihydrochloride, Sigma Cat #P6912) is used instead of the substrate supplied in the kit. Absorbance at 492 nm is measured with the Envision multi-label plate reader. A492 values are converted to concentration of IL-17 based on the IL-17 standard curve as shown below: pg/mL IL-17=EC50*[[(Top-Bottom)/(A492-Bottom)]-1](1/-Hill). IC50's for inhibition of IL-17 secretion is calculated based on converted values using a standard 4-parameter fit with maximum inhibition determined from the average values of wells with no added stimulants nor compounds and minimum inhibition from the average values of wells with stimulants alone and no added compound.

[4] = biological target: human RAR-related orphan receptor beta (hRORβ) (Homo sapiens (Human), UniProt Q92753); assay: RORβ receptor-ligand competition binding assay; conditions: His-tagged hRORβ; mean ± standard deviation; read-out: RORb Ki
Protocol: (§1) His-tagged human RAR-related orphan receptor alpha (hRORα), human RAR-related orphan receptor beta (hRORβ), and human RAR-related orphan receptor gamma (hRORγ) are used for receptor-ligand competition binding assays to determine Ki values. Typical procedures are provided below.
(§2) The final wells contain 20 μg/mL aprotinin and 20 μg/mL leupeptin and 10 μM Pefabloc. Typically, receptor binding assays include radio-labeled ligands, such as 7 nM [^3H]-25-hydroxycholesterol for alpha binding, 20 nM [^3H]-3-[[4-[[3-(2,6-dichlorophenyl)-5-isopropyl-isoxazol-4-yl]methoxy]-N,2-dimethyl-anilino]methyl]benzoic acid for beta binding, and 6 nM [3H]-25-hydroxycholesterol for gamma binding, and 0.5 μg RORα receptor, 0.03 μg RORβ receptor, or 0.13 μg RORγ receptor per well. Assays are typically run in 96-well format. […] Plates are mixed for 30 minutes on an orbital shaker at room temperature. After an incubation of 4 hours, plates are read in a Wallac MICROBETA® counter.
(§3) The data are used to calculate an estimated IC50 using a four parameter logistic fit. The Kd for [^3H]-25-hydroxycholesterol for RORa and RORg, and [^3H]-3-[[4-[[3-(2,6-dichlorophenyl)-5-isopropyl-isoxazol-4-yl]methoxy]-N,2-dimethyl-anilino]methyl]benzoic acid for RORb binding, is determined by saturation binding. The IC50 values for compounds are converted to Ki using the Cheng-Prushoff equation.

[5] = biological target: human RAR-related orphan receptor gamma (hRORγ) (Homo sapiens (Human), UniProt P51449); assay: RORγ receptor-ligand competition binding assay; conditions: His-tagged hRORγ, [3H]-25-hydroxycholesterol; mean ± standard deviation; read-out: RORg Ki
Protocol: as §1, §2, §3

[6] = biological target: human RAR-related orphan receptor alpha (hRORα) (Homo sapiens (Human), UniProt P35398); assay: RORα receptor-ligand competition binding assay; conditions: His-tagged hRORα, [3H]-25-hydroxycholesterol; mean ± standard deviation; read-out: RORa Ki
Protocol: as §1, §2, §3

[7] = tested on: GPI induced arthritis in DBA/1 mice; assay: Glucose-6-phosphate isomerase (GPI) induced arthritis model; type: in vivo, mouse; conditions: 100 mg/Kg orally once daily
Protocol: The GPI induced arthritis model is adapted from K. Iwanami et al Arthritis Rheumatism 58, 754-763, 2008 and D. Schubert et al. J Immunology 172, 4503-4509, 2004. Mice (8-9 week old male DBA/1 mice) (Harlan) are randomly assigned into treatment groups based on body weights collected on the day of immunization (day 0). On the day of immunization (day 0), a 1:1 (v:v) mixture of recombinant human GPI (diluted to 4 mg/mL in PBS, Gibco) and complete Freund's adjuvant (CFA, Sigma) is mixed on a high speed homogenizer (Omni) for 40 minutes in a cold room. A final concentration of 2 mg/mL GPI is achieved in the emulsion. Mice are injected at the base of the tail (2 sites of injection, subcutaneously, 100 μL each site) with the GPI emulsion. Test compounds are dosed orally starting on the same day as immunization (day 0). Starting on day 0, each paw is scored for severity of joint swelling based on a 0 to 3 scoring system (See K. Iwanami et al Arthritis Rheumatism 58, 754-763, 2008. The clinical score represents the total score of all 4 paws (maximum score=12). Clinical scores are assessed on days 0, 2, 4, 7, 8, 9, 10, 11, 12, 14, 16, 18, and 21.
The AUC is calculated by a trapezoid method for clinical score over time from the day of immunization (day 0) to day 21. Test p-values were derived from Student's t-test.

Sequence of human RAR-related orphan receptor beta (hRORβ) (Q92753 whole entry): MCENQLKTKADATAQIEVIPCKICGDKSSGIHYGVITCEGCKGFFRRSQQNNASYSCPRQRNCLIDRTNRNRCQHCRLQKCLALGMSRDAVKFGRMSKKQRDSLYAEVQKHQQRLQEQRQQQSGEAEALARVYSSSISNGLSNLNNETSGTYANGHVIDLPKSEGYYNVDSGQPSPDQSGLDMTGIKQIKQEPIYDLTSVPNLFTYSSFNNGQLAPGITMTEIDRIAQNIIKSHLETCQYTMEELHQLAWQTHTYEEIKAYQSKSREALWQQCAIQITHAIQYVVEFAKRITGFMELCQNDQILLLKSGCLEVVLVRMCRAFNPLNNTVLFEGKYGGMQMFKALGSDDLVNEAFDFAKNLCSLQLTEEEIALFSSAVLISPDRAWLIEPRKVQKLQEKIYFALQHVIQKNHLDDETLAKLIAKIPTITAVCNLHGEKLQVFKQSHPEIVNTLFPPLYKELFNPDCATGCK
Sequence of human RORg ligand binding domain fused to yeast GAL4 DNA binding domain (P51449 269-508): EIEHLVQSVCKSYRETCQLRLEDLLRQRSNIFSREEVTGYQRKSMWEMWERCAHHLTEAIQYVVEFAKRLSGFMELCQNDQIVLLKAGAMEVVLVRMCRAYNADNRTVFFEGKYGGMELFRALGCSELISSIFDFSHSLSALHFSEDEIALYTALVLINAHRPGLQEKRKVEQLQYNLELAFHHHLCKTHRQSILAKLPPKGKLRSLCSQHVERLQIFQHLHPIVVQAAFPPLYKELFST
Sequence of human RAR-related orphan receptor alpha (hRORα) (P35398 whole entry): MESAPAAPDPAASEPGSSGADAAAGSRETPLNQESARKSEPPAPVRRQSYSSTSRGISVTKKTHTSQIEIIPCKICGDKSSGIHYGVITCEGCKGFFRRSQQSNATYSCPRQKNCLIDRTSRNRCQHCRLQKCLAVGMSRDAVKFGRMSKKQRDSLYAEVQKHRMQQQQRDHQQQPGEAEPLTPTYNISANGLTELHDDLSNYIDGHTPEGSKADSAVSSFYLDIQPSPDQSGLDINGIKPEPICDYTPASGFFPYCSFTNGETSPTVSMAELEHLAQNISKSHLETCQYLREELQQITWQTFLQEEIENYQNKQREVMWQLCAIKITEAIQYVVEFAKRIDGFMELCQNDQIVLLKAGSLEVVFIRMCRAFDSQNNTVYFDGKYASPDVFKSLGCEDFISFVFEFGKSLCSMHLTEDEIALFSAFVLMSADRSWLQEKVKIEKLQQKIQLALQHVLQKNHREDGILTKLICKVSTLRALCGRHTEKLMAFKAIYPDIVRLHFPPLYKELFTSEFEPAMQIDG
Sequence of human RAR-related orphan receptor gamma (hRORγ) (P51449 whole entry): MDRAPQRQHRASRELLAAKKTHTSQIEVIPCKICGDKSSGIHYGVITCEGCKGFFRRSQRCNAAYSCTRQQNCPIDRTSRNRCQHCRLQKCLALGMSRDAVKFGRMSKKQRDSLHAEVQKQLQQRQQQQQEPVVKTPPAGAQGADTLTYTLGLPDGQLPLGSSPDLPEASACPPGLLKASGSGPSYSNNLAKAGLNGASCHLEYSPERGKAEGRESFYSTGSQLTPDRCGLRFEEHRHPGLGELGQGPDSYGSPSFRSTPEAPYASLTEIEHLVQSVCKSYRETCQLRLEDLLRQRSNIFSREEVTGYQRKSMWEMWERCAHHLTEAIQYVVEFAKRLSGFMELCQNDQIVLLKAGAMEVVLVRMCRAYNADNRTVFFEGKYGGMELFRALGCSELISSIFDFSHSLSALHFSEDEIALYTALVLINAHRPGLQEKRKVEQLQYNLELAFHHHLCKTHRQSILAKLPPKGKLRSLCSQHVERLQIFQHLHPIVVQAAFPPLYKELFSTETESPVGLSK

| SMILES | EC50 [1] | IC50 [2] | EC50 [3] | Ki [4] | Ki [5] | Ki [6] | severity of paw swelling and mean clinical scores compared to the vehicle group [7] | reduction in clinical score AUC ([7]; compared to the vehicle group) | Clinical Score AUC (mean ± SEM) ([7]; day 0 to day 21, male DBA/1 mice) |
| --- | --- | --- | --- | --- | --- | --- | --- | --- | --- |
| CCS(=O)(=O)c1ccc(CNC(=O)c2cc3c(s2)C2(CCN(C(C)c4cnc(C(F)(F)F)nc4C)CC2)O[C@@H](C)C3)cc1 (single isomer, unassigned; isomer 1) [Example 66, (5′S)-N-[4-(Ethylsulfonyl)benzyl]-5′-methyl-1-{1-[4-methyl-2-(trifluoromethyl)pyrim-idin-5-yl]ethyl}-4′,5′-dihydrospiro[piperidine-4,7′-thieno[2,3-c]pyran]-2′-carboxamide isomer 1] | > 1 µM | 31.4 ± 11.2 nM | 13.3 ± 4.7 nM |  |  |  |  |  |  |
| CCS(=O)(=O)c1ccc(CNC(=O)c2cc3c(s2)C2(CCN(C(C)c4ccc(C(F)(F)F)nc4)CC2)OC(C)C3)cc1 (single isomer, unassigned; isomer 2) [Example 42, N-[4-(Ethylsulfonyl)benzyl]-5′-methyl-1-{1-[6-(trifluoromethyl)pyridin-3-yl]ethyl}-4′,5′-dihydrospiro[piperidine-4,7′-thieno[2,3-c]pyran]-2′-carboxamide isomer 2] | > 1 µM | 19.9 ± 10.7 nM | 8.3 ± 3.8 nM | > 12500 nM | 4.42 ± 2.7 nM | > 20400 nM |  |  |  |
| CCS(=O)(=O)c1ccc(CNC(=O)c2cc3c(s2)C2(CCN(C(C)c4ccc(C(F)(F)F)nc4)CC2)OC(C)C3)nc1 (single isomer, unassigned; isomer 2) [Example 46, N-{[5-(Ethylsulfonyl)pyridin-2-yl]methyl}-5′-methyl-1-{1-[6-(trifluoromethyl)pyridin-3-yl]ethyl}-4′,5′-dihydrospiro[piperidine-4,7′-thieno[2,3-c]pyran]-2′-carboxamide isomer 2] | > 1 µM |  | 24.5 ± 11.9 nM |  |  | > 20400 nM |  |  |  |
| CCS(=O)(=O)c1ccc(CNC(=O)c2cc3c(s2)C2(CCN(C(C)c4cnc(C(F)(F)F)s4)CC2)O[C@@H](C)C3)nc1 (single isomer, unassigned; isomer 2) [Example 55, (5′S)-N-{[5-(Ethylsulfonyl)pyridin-2-yl]methyl}-5′-methyl-1-{1-[2-(trifluoromethyl)-1,3-thiazol-5-yl]ethyl}-4′,5′-dihydrospiro[piperidine-4,7′-thieno[2,3-c]pyran]-2′-carboxamide isomer 2] | > 1 µM |  | 12.6 ± 8.1 nM | > 12500 nM |  |  | reduces severity of paw swelling and maintains lower mean clinical scores | 94% | 7.50 ± 2.08 |
| CCS(=O)(=O)c1ccc(CNC(=O)c2cc3c(s2)C2(CCN(C(C)c4cnc(C(F)(F)F)nc4C)CC2)O[C@@H](C)C3)nc1 (single isomer, unassigned; isomer 2) [Example 69, (5′S)-N-{[5-(Ethylsulfonyl)pyridin-2-yl]methyl}-5′-methyl-1-{1-[4-methyl-2-(trifluoromethyl)pyrim-idin-5-yl]ethyl}-4′,5′-dihydrospiro[piperidine-4,7′-thieno[2,3-c]pyran]-2′-carboxamide isomer 2] | > 1 µM | 15.4 ± 13.4 nM | 30 ± 18.5 nM |  |  |  |  |  |  |
| CCS(=O)(=O)c1ccc(CNC(=O)c2cc3c(s2)C2(CCN([C@H](C)c4cnc(C(F)(F)F)nc4)CC2)O[C@@H](C)C3)cc1 [Example 16, (5′S)—N-[4-(Ethylsulfonyl)benzyl]-5′-methyl-1-{(1R)-1-[2-(trifluoromethyl)pyrimidin-5-yl]ethyl}-4′,5′-dihydrospiro[piperidine-4,7′-thieno[2,3-c]pyran]-2′-carboxamide] | > 1 µM |  |  | > 12500 nM |  |  |  |  |  |
| CCS(=O)(=O)c1ccc(CNC(=O)c2cc3c(s2)C2(CCN(Cc4ccc(-c5ncon5)cc4F)CC2)O[C@@H](C)C3)nc1 [Example 25, (5′S)-N-{[5-(Ethylsulfonyl)pyridin-2-yl]methyl}-1-[2-fluoro-4-(1,2,4-oxadiazol-3-yl)benzyl]-5′-methyl-4′,5′-dihydrospiro[piperidine-4,7′-thieno[2,3-c]pyran]-2′-carboxamide] | > 1 µM | 16.2 ± 9.7 nM | 30.8 ± 25.7 nM |  | 6.04 ± 1.19 nM |  |  |  |  |
| CCS(=O)(=O)c1ccc(CNC(=O)c2cc3c(s2)C2(CCN([C@@H](C)c4ccc(C#N)cc4)CC2)OCC3)cc1 [Example 64, 1-[(1S)-1-(4-Cyanophenyl)ethyl]-N-[4-(ethylsulfonyl)benzyl]-4′,5′-dihydrospiro[piperidine-4,7′-thieno[2,3-c]pyran]-2′-carboxamide] | > 3 µM |  |  | > 22700 nM |  |  |  |  |  |

— patent US11008336B2, “Compounds useful for inhibiting RORγt” (Eli Lilly and Company, priority 2017, dated 2021)
